Laboratory results taken from ChEMBL document CHEMBL1201862, “PubChem BioAssay data set” (2004).
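96-well plates; 48 h exposure; 5 concentrations. Endpoints by linear interpolation between flanking doses. Not reached: highest tested concentration assigned. Abbreviation: GI50, concentration required for 50% inhibition of growth.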 Calls of active or inactive are those of the source. Cut-off read from the data, not from the text of the source: active = GI50 up to about 1.1 µM and inactive = higher.

How the values were obtained:
Assay in all cases: NCI-60 cell line screen, 48 h
[1] = tested on: SR
[2] = tested on: OVCAR-5
[3] = tested on: SNB-19
[4] = tested on: NCI-H226
[5] = tested on: SW-620
[6] = tested on: M14
[7] = tested on: NCI-H522
[8] = tested on: SF-539
[9] = tested on: TK-10
[10] = tested on: HL-60
[11] = tested on: RPMI-8226
[12] = tested on: RXF 393
[13] = tested on: K562
[14] = tested on: SF-295
[15] = tested on: EKVX
[16] = tested on: MDA-MB-231
[17] = tested on: Malme-3M
[18] = tested on: HOP-92
[19] = tested on: NCI-H460

Measured: GI50

C/C(=C/CC[C@](C)(OC1OC(CO)C(O)C(O)C1O)[C@H]1CC[C@]2(C)[C@@H]1CC[C@@H]1[C@@]3(C)CC[C@H](O)C(C)(C)[C@@H]3C[C@H](O)[C@]12C)CO (some centres undefined)
inactive: [1] 22.2 µM | [2] 49.8 µM | [3] 22 µM | [4] 26.8 µM | [5] 27.4 µM | [6] 37.5 µM | [7] 17.9 µM | [8] 10.4 µM | [9] 55.7 µM | [10] 16.5 µM | [11] 5.4 µM | [12] 3.46 µM | [13] 13.4 µM | [14] 14.8 µM | [15] 60.8 µM | [16] 31.3 µM | [17] 21.6 µM | [18] 27.4 µM | [19] 16.8 µM

CC(C)(C)c1ccc(O)c(CN(Cc2c(O)ccc3ccccc23)C2CCCCC2)c1
inactive: [1] 16 µM | [2] 16.9 µM | [3] 18.5 µM | [5] 24.4 µM | [6] 12.6 µM | [7] 14.8 µM | [8] 16.4 µM | [9] 15.8 µM | [11] 26.6 µM | [12] 17.5 µM | [13] 16.9 µM | [14] 18.3 µM | [15] 15.8 µM | [16] 16.8 µM | [17] 17.4 µM | [18] 16.4 µM | [19] 15.8 µM

COc1ccc(C)cc1N1C(=O)C2ON(Cc3ccc(CC(N)=O)cc3)C(c3c4ccccc4c(Cl)c4ccccc34)C2C1=O (centres undefined)
inactive: [1] 12.8 µM | [2] 23.6 µM | [3] 32.1 µM | [5] 28.4 µM | [6] 19.3 µM | [7] 32.1 µM | [9] 23.1 µM | [10] 27.6 µM | [12] 13.3 µM | [13] 28.8 µM | [14] 22.9 µM | [15] 28.2 µM | [16] 19.9 µM | [17] 31.1 µM | [18] 32.6 µM | [19] 18.4 µM

CN1Cc2ccccc2S(=O)(=O)n2cccc2C1=O
inactive: [1] 8.41 µM | [2] > 100 µM | [5] > 100 µM | [7] > 100 µM | [8] > 100 µM | [9] > 100 µM | [10] > 100 µM | [11] > 100 µM | [12] > 100 µM | [13] > 100 µM | [14] > 100 µM | [15] > 100 µM | [16] > 100 µM | [18] > 100 µM | [19] > 100 µM

CCOc1ccc(C(c2c(O)c3ccccc3oc2=O)c2c(O)c3ccccc3oc2=O)cc1
inactive: [1] 26 µM | [2] > 100 µM | [3] 91 µM | [4] 95.9 µM | [5] 79.4 µM | [6] 42.3 µM | [7] 30.7 µM | [8] 48 µM | [9] 49.5 µM | [10] 19.9 µM | [11] 32.2 µM | [13] 53.8 µM | [14] > 100 µM | [15] 80.4 µM | [16] 58.5 µM | [17] 48.8 µM | [18] 23.6 µM

O=S(=O)(O)c1ccc2c(/N=N/c3ccccc3Cl)c(O)ccc2c1
inactive: [1] > 100 µM | [2] > 100 µM | [3] > 100 µM | [5] > 100 µM | [6] > 100 µM | [7] > 100 µM | [9] > 100 µM | [11] > 100 µM | [12] > 100 µM | [13] > 100 µM | [14] > 100 µM | [15] > 100 µM | [16] > 100 µM | [17] > 100 µM | [18] > 100 µM
